Assay results reported in article PMC3349712, “DipA, a Pore-Forming Protein in the Outer Membrane of Lyme Disease Spirochetes Exhibits Specificity for the Permeation of Dicarboxylates” (PLoS ONE, 2012).

Biological target: T1, DipA (Borreliella burgdorferi, UniProt O51379)
T1 construct: gene BB_0418; native protein from outer membrane fraction of B. burgdorferi B31 delta-p66, hydroxyapatite chromatography in Genapol, untagged; predicted 20-residue signal peptide removed; 36 kDa; minor truncated OspA/OspB in fraction
T1 sequence (O51379 entry or part of it): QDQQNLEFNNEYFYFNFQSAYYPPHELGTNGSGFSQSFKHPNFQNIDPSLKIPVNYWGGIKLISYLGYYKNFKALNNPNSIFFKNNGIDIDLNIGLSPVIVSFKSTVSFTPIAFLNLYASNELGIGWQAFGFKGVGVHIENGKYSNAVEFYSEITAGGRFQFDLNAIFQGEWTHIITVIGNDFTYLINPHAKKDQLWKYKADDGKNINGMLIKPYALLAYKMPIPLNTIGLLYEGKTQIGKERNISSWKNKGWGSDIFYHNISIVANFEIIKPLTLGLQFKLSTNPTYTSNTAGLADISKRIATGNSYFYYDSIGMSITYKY
Assay: biochemical
Assay type: binding
From the text: planar lipid bilayer, titration of channel conductance block on DipA

| Compound | Kd [µM] |
| --- | --- |
| O=C(O)c1ccccc1C(=O)O [Phthalate] | 175 |
| O=C(O)CC(O)(CC(=O)O)C(=O)O [Citrate] | 76.9 |
| O=C(O)C[C@H](O)C(=O)O [Malate] | 769 |
| O=C(O)/C=C/C(=O)O [Fumarate] | 2380 |
| O=C(O)/C=C\C(=O)O [Maleate] | 35.3 |
| N[C@@H](CCC(=O)O)C(=O)O [Glutamate] | 800 |
| N[C@@H](CC(=O)O)C(=O)O [Aspartate] | 769 |
| CC(=O)C(=O)O [Pyruvate] | 2130 |
| O=C(O)CCC(=O)C(=O)O [2-Oxoglutarate] | 286 |
| O=C(O)CC(=O)C(=O)O [Oxaloacetate] | 50.3 |
| O=C(O)CCC(=O)O [Succinate] | 164 |
